In patent publication US10344025B2, “GLS1 inhibitors for treating disease” (Board of Regents, The University of Texas System, priority 2014, dated 2019):

Experiments:
[1] = molecular target: purified recombinant human GAC (GLS1) (Homo sapiens (Human), UniProt O94925); experiment: GLS1 Enzymatic Activity Assay (dual-coupled enzymatic assay, resorufin/Amplex UltraRed readout); format: biochemical;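 also: glutamate from GAC coupled via glutamate oxidase and peroxidase to resorufin, read as fluorescence (ex 530, em 590 nm) kinetically or at 20 min, four-parameter logistic IC50 fit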
purified recombinant human GAC (GLS1), sequence (O94925 other isoform, or with tags, fused parts or gaps): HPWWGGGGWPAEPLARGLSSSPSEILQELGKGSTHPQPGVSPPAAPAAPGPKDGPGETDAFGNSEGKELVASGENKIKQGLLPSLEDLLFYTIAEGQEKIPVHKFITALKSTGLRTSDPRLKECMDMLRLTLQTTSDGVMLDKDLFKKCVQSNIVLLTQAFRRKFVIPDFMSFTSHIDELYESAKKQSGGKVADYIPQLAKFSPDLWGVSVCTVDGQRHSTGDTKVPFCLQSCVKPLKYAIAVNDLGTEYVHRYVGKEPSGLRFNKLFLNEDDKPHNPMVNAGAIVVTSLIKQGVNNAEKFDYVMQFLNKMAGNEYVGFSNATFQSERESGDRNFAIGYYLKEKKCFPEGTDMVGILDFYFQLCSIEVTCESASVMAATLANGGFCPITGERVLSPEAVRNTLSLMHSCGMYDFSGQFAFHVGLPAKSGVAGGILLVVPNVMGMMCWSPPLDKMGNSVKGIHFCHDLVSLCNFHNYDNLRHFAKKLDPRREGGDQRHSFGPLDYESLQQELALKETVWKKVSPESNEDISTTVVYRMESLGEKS

A549 cells = experiment: Proliferation Assay (A549 viability, Cell Titer Fluor, 72 hours); format: cell-based; conditions: Homo sapiens, A549, 72 h
Experimental: A549 cells were routinely maintained in RPMI 1640 media (Gibco catalog number 11875-093) supplemented with 10% dialyzed fetal bovine serum using a humidified incubator (37° C., 5% CO2 and ambient O2). In preparation for the viability assay, cells were inoculated into 384-well black CulturPlates (Perkin Elmer) at a density of 1000 cells/well in a volume of 40 uL. Following a 24-hour incubation at 37° C., 5% CO2 and ambient O2, cells were treated with compound (10 uL) in a final DMSO concentration of 0.5% (v/v). The microplates were then incubated for 72 hours (37° C., 5% CO2 and ambient O2). Cell Titer Fluor (Promega) was subsequently added (10 uL of 6× reagent) and mixed for 15 minutes at room temperature. The plates were then incubated for 30 minutes (37° C., 5% CO2 and ambient O2) and fluorescence was subsequently read on the Perkin Elmer Envision plate reader. IC50 values were calculated using a four-parameter logistic curve fit.
Non-limiting examples include the following compounds and pharmaceutically acceptable salts thereof. […] “ND” indicates no data.

For `O=C(Cc1cccc(OC(F)(F)F)c1)Nc1cn(CCCCn2cc(C(=O)NCc3cc(C(F)(F)F)ccn3)nn2)nn1` [Example 414, 1-[4-(4-{2-[3-(trifluoromethoxy)phenyl]acetamido}-1H-1,2,3-triazol-1-yl)butyl]-N-{[4-(trifluoromethyl)pyridin-2-yl]methyl}-1H-1,2,3-triazole-4-carboxamide], the IC50 [1] was less than 0.1 µM and the EC50 (A549 cells) was less than 0.1 µM.

Molecule `O=C(Cc1cccc(OC(F)(F)F)c1)Nc1nnc(CCCCn2cc(C(=O)NCc3ccccn3)nn2)s1` [Example 19, N-(pyridin-2-ylmethyl)-1-[4-(5-{2-[3-(trifluoromethoxy)phenyl]acetamido}-1,3,4-thiadiazol-2-yl)butyl]-1H-1,2,3-triazole-4-carboxamide] has an IC50 [1] of less than 0.1 µM and an EC50 (A549 cells) of less than 0.1 µM.

For `O=C(NCc1cccc(C(F)(F)F)c1)c1cn(CCCCn2cc(C(=O)NCc3cc(C(F)(F)F)ccn3)nn2)nn1` [Example 97, 1-{4-[4-({[3-(trifluoromethyl)phenyl]methyl}carbamoyl)-1H-1,2,3-triazol-1-yl]butyl}-N-{[4-(trifluoromethyl)pyridin-2-yl]methyl}-1H-1,2,3-triazole-4-carboxamide], the IC50 [1] was less than 0.1 µM and the EC50 (A549 cells) was less than 0.1 µM.

For `O=C(NCc1cc(C(F)(F)F)ccn1)c1cn(CC(F)CCc2nnc(C(=O)NCCC(F)(F)F)s2)nn1` (centres unmarked) [Example 511, 5-{3-fluoro-4-[4-({[4-(trifluoromethyl)pyridin-2-yl]methyl}carbamoyl)-1H-1,2,3-triazol-1-yl]butyl}-N-(3,3,3-trifluoropropyl)-1,3,4-thiadiazole-2-carboxamide], the IC50 [1] was 0.1 to 0.5 µM and the EC50 (A549 cells) was 0.5 to 5 µM.

Work on `O=C(Cc1cc(OC(F)(F)F)ccc1F)Nc1cn(CCC(F)Cn2cc(C(=O)NCc3cc(C(F)(F)F)ccn3)nn2)nn1` (centres unmarked) [Example 418, 1-[2-fluoro-4-(4-{2-[2-fluoro-5-(trifluoromethoxy)phenyl]acetamido}-1H-1,2,3-triazol-1-yl)butyl]-N-{[4-(trifluoromethyl)pyridin-2-yl]methyl}-1H-1,2,3-triazole-4-carboxamide] yielded an IC50 [1] of less than 0.1 µM and an EC50 (A549 cells) of less than 0.1 µM.

With `O=C(NCc1cc(C(F)(F)F)ccn1)c1cn(CC(F)CCc2nnc(C(=O)NCC(F)(F)F)s2)nn1` (centres unmarked) [Example 499, 5-{3-fluoro-4-[4-({[4-(trifluoromethyl)pyridin-2-yl]methyl}carbamoyl)-1H-1,2,3-triazol-1-yl]butyl}-N-(2,2,2-trifluoroethyl)-1,3,4-thiadiazole-2-carboxamide] the IC50 [1] was 0.1 to 0.5 µM and the EC50 (A549 cells) was 0.1 to 0.5 µM.

In the case of `O=C(Cc1cc(OC(F)(F)F)ccc1F)Nc1ccc(CCCCn2cc(C(=O)NCc3cccnc3)nn2)nn1` [Example 586, 1-(4-(6-(2-(2-fluoro-5-(trifluoromethoxy)phenyl)acetamido)pyridazin-3-yl)butyl)-N-(pyridin-3-ylmethyl)-1H-1,2,3-triazole-4-carboxamide], the IC50 [1] is reported as less than 0.1 µM and the EC50 (A549 cells) is reported as less than 0.1 µM.

For `NC(=O)c1cn(CC(F)CCc2nnc(NC(=O)Cc3cccc(OC(F)(F)F)c3)s2)nn1` (centres unmarked) [Example 530, 1-[2-fluoro-4-(5-{2-[3-(trifluoromethoxy)phenyl]acetamido}-1,3,4-thiadiazol-2-yl)butyl]-1H-1,2,3-triazole-4-carboxamide], the IC50 [1] was less than 0.1 µM and the EC50 (A549 cells) was 0.5 to 5 µM.

`CNC(=O)c1cn(C[C@H](F)CCc2nnc(NC(=O)Cc3cccc(OC(F)(F)F)c3)s2)nn1` [Example 240, (R)-1-(2-fluoro-4-(5-(2-(3-(trifluoromethoxy)phenyl)acetamido)-1,3,4-thiadiazol-2-yl)butyl)-N-methyl-1H-1,2,3-triazole-4-carboxamide] showed an IC50 [1] of less than 0.1 µM and an EC50 (A549 cells) of less than 0.1 µM.

In the case of `O=C(NCc1cc(C(F)(F)F)ccn1)c1cn(CC(F)CCc2nnc(C(=O)NCc3cccc(C(F)(F)F)n3)s2)nn1` (centres unmarked) [Example 491, 5-{3-fluoro-4-[4-({[4-(trifluoromethyl)pyridin-2-yl]methyl}carbamoyl)-1H-1,2,3-triazol-1-yl]butyl}-N-{[6-(trifluoromethyl)pyridin-2-yl]methyl}-1,3,4-thiadiazole-2-carboxamide], the IC50 [1] is reported as less than 0.1 µM and the EC50 (A549 cells) is reported as less than 0.1 µM.

Work on `N#CCNC(=O)c1cn(CCC(F)Cn2cc(C(=O)NCc3cc(OC(F)(F)F)ccc3F)nn2)nn1` (centres unmarked) [Example 168, N-(cyanomethyl)-1-{3-fluoro-4-[4-({[2-fluoro-5-(trifluoromethoxy)phenyl]methyl}carbamoyl)-1H-1,2,3-triazol-1-yl]butyl}-1H-1,2,3-triazole-4-carboxamide] yielded an IC50 [1] of less than 0.1 µM and an EC50 (A549 cells) of 0.1 to 0.5 µM.

`CNC(=O)c1cn(CCCCc2ccc(NC(=O)Cc3cccc(N(C)C)c3)nn2)nn1` [Example 237, 1-(4-(6-(2-(3-(dimethylamino)phenyl)acetamido)pyridazin-3-yl)butyl)-N-methyl-1H-1,2,3-triazole-4-carboxamide] gave an IC50 [1] of less than 0.1 µM and an EC50 (A549 cells) of 0.1 to 0.5 µM.

In the case of `CNC(=O)c1cn(CCCCc2ccc(NC(=O)Cc3cc(Br)ccn3)nn2)nn1` [Example 200, 1-(4-(6-(2-(4-bromopyridin-2-yl)acetamido)pyridazin-3-yl)butyl)-N-methyl-1H-1,2,3-triazole-4-carboxamide], the EC50 (A549 cells) is reported as 0.1 to 0.5 µM.

`CNC(=O)c1cn(CC(F)CCc2ccc(NC(=O)Cc3cc(OC(C)C(F)(F)F)ccn3)nn2)nn1` (centres unmarked) [Example 266, 1-(2-fluoro-4-(6-(2-(4-((1,1,1-trifluoropropan-2-yl)oxy)pyridin-2-yl)acetamido)pyridazin-3-yl)butyl)-N-methyl-1H-1,2,3-triazole-4-carboxamide] gave an EC50 (A549 cells) of less than 0.1 µM.

With `O=C(NCc1ccccc1)c1cn(CCCCc2nnc(C(=O)NCc3cccc(OC(F)(F)F)c3)s2)nn1` [Example 39, 5-{4-[4-(benzylcarbamoyl)-1H-1,2,3-triazol-1-yl]butyl}-N-{[3-(trifluoromethoxy)phenyl]methyl}-1,3,4-thiadiazole-2-carboxamide] the EC50 (A549 cells) was 0.1 to 0.5 µM.

For `O=C(NCc1cc(C2CC2)ccn1)c1cn(CCC(F)Cn2cc(C(=O)NCc3cccc(C4CC4)c3)nn2)nn1` (centres unmarked) [Example 134, 1-[4-(4-{[(3-cyclopropylphenyl)methyl]carbamoyl}-1H-1,2,3-triazol-1-yl)-3-fluorobutyl]-N-[(4-cyclopropylpyridin-2-yl)methyl]-1H-1,2,3-triazole-4-carboxamide], the EC50 (A549 cells) was less than 0.1 µM.

Work on `CNC(=O)c1cn(C[C@H](F)CCc2ccc(NC(=O)Cc3cc(C(F)(F)F)cc(C)n3)nn2)nn1` [Example 268, (R)-1-(2-fluoro-4-(6-(2-(6-methyl-4-(trifluoromethyl)pyridin-2-yl)acetamido)pyridazin-3-yl)butyl)-N-methyl-1H-1,2,3-triazole-4-carboxamide] yielded an EC50 (A549 cells) of less than 0.1 µM.

With `CNC(=O)c1cn(CCCCc2ccc(NC(=O)Cc3cc(-c4cccc(OC(F)(F)F)c4F)ccn3)nn2)nn1` [Example 607, 1-(4-(6-(2-(4-(2-fluoro-3-(trifluoromethoxy)phenyl)pyridin-2-yl)acetamido)pyridazin-3-yl)butyl)-N-methyl-1H-1,2,3-triazole-4-carboxamide] the EC50 (A549 cells) was less than 0.1 µM.

With `CNC(=O)c1cn(C[C@H](F)CCc2ccc(NC(=O)Cc3ccccn3)nn2)nn1` [Example 254, (R)-1-(2-fluoro-4-(6-(2-(pyridin-2-yl)acetamido)pyridazin-3-yl)butyl)-N-methyl-1H-1,2,3-triazole-4-carboxamide] the EC50 (A549 cells) was 0.1 to 0.5 µM.

`O=C(Cc1ccccn1)Nc1ccc(CCCCn2cc(C(=O)NCc3cccc(OC(F)(F)F)c3)nn2)nn1` [Example 169, 1-(4-{6-[2-(pyridin-2-yl)acetamido]pyridazin-3-yl}butyl)-N-{[3-(trifluoromethoxy)phenyl]methyl}-1H-1,2,3-triazole-4-carboxamide] was tested, and the EC50 (A549 cells) was less than 0.1 µM.

Molecule `O=C(Cc1cccc(OC(F)(F)F)c1)Nc1ccc(CCCCn2cc(C(=O)NCCO)nn2)nn1` [Example 528, N-(2-hydroxyethyl)-1-[4-(6-{2-[3-(trifluoromethoxy)phenyl]acetamido}pyridazin-3-yl)butyl]-1H-1,2,3-triazole-4-carboxamide] has an EC50 (A549 cells) of 0.5 to 5 µM.

`CNC(=O)c1cn(CCCCc2ccc(NC(=O)Cc3ccccn3)nn2)nn1` [Example 167, N-methyl-1-(4-{6-[2-(pyridin-2-yl)acetamido]pyridazin-3-yl}butyl)-1H-1,2,3-triazole-4-carboxamide] showed an EC50 (A549 cells) of 0.1 to 0.5 µM.

In the case of `O=C(Cc1cncc(OC2CC(F)(F)C2)c1)Nc1ccc(CCCCn2cc(C(=O)NCc3cc(C(F)(F)F)ccn3)nn2)nn1` [Example 230, 1-(4-(6-(2-(5-(3,3-difluorocyclobutoxy)pyridin-3-yl)acetamido)pyridazin-3-yl)butyl)-N-((4-(trifluoromethyl)pyridin-2-yl)methyl)-1H-1,2,3-triazole-4-carboxamide], the EC50 (A549 cells) is reported as less than 0.1 µM.

In the case of `CNC(=O)c1cn(CCCCc2ccc(NC(=O)Cc3cccnc3)nn2)nn1` [Example 541, N-methyl-1-(4-{6-[2-(pyridin-3-yl)acetamido]pyridazin-3-yl}butyl)-1H-1,2,3-triazole-4-carboxamide], the EC50 (A549 cells) is reported as 0.5 to 5 µM.

Molecule `CNC(=O)c1cn(C[C@@H](F)CCc2ccc(NC(=O)Cc3ccccn3)nn2)nn1` [Example 256, (S)-1-(2-fluoro-4-(6-(2-(pyridin-2-yl)acetamido)pyridazin-3-yl)butyl)-N-methyl-1H-1,2,3-triazole-4-carboxamide] has an EC50 (A549 cells) of 0.1 to 0.5 µM.

`CNC(=O)c1cn(CCCCc2ccc(NC(=O)Cc3ccc(Cl)nc3)nn2)nn1` [Example 544, 1-(4-{6-[2-(6-chloropyridin-3-yl)acetamido]pyridazin-3-yl}butyl)-N-methyl-1H-1,2,3-triazole-4-carboxamide] showed an EC50 (A549 cells) of 0.1 to 0.5 µM.
